We go through 27 molecules from patent US8048879B2, “Substituted 4,5,6,7-tetrahydro-isoxazolo[4,5-c]pyridine compounds and use thereof for producing medicaments” (Gruenenthal GmbH, priority 2005, dated 2011).

In general, inhibition refers to the drop in the measured response relative to a control, in per cent.

The assay deals with T1, 5-HT transporter (Rattus norvegicus, UniProt P31652).
T1 construct: from tissue; host or cells: rat brain (medulla and pons), synaptosomes, P2 fraction
T1 sequence (P31652 whole entry): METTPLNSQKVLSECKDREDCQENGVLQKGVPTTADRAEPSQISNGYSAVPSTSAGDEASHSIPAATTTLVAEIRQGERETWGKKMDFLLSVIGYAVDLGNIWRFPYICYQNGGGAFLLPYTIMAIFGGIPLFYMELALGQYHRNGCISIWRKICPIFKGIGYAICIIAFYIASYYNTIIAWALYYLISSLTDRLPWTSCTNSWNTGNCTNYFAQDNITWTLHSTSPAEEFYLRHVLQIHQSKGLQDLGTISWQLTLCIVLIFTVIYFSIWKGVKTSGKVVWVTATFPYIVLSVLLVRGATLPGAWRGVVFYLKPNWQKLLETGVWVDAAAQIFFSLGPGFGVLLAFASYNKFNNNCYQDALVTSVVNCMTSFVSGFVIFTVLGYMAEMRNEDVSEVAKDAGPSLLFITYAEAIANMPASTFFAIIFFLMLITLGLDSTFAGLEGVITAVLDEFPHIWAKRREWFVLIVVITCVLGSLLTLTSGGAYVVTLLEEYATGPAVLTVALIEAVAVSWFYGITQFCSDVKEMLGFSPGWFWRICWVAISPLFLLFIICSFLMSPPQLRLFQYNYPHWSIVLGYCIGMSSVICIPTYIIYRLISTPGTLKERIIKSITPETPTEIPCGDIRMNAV
Nature of the assay: 5-HT uptake inhibition, synaptosomes from rat brain (medulla and pons). The format is biochemical. An excerpt: b) Method for Determining Noradrenalin and 5-HT Uptake Inhibition:
Synaptosomes from rat brain regions are freshly isolated for in vitro studies, as described in the publication “The isolation of nerve endings from brain” by E. G. Gray and V. P. Whittaker, J. Anatomy 96, pages 79-88, 1962. The corresponding literature description is hereby introduced as a reference and is deemed to be part of the disclosure.
The tissue (hypothalamus for the determination of noradrenalin uptake inhibition and medulla and pons for the determination of 5-HT uptake inhibition) is homogenised in ice-cooled 0.32 M sucrose (100 mg of tissue/1 mL) in a glass homogeniser with Teflon pestle using five complete up and down strokes at 840 revolutions/minute.
The homogenate is centrifuged at 4° C. for 10 minutes at 1000 g. After subsequent centrifugation at 17000 g for 55 minutes, the synaptosomes (P2 fraction) are obtained, which are resuspended in 0.32 M […] (0.5 mL/100 mg of original weight).
The particular uptake is measured in a 96-well microtitre plate. The volume is 250 μL and the incubation proceeds at room temperature (approx. 20-25° C.) under an O2 atmosphere.
The incubation time is 7.5 minutes for [^3H]-NA and 5 minutes for [^3H]-5-HT. The 96 samples are then filtered through a Unifilter GF/B® microtitre plate (Packard) and washed with 200 mL of incubated buffer using a “Brabdel MPXRI-96T Cell-Harvester”. The Unifilter GF/B plate is dried for 1 hour at 55° C. The plate is then sealed with a Back Seal® (Packard) and 35 μL of scintillation fluid are added per well (Ultima Gold®, Packard). After sealing with a top Seal® (Packard) and establishing an equilibrium (around 5 hours), radioactivity is determined in a “Trilux 1450 Microbeta” (Wallac).
The quantity of protein used in the above determination corresponds to the values known from the literature, as for example described in “Protein measurement with the folin phenol reagent”, Lowry et al., J. Biol. Chem., 193, 265-275, 1951.
A detailed description of the method may additionally be found in the literature, for example in M. Ch. Frink, H.-H. Hennies, W. Engelberger, M. Haurand and B. Wilffert (1996) Arzneim.-Forsch./Drug Res. 46 (III), 11, 1029-1036.
The following characteristics were determined for the NA or 5-HT transporter: […]
`CN(C)S(=O)(=O)N1CCc2onc(C(=O)N(CCC#N)Cc3cccnc3)c2C1` [Example 70, 5-dimethylsulfamoyl-4,5,6,7-tetrahydro-isoxazolo[4,5-c]pyridine-3-carboxylic acid (2-cyano-ethyl)-pyridin-3-ylmethyl-amide] had an inhibition at 10 µM of 63%.
Consider `O=C(NC1CCCC1)c1noc2c1CN(C(=O)NCc1ccc(F)cc1)CC2` [Example 2, 6,7-dihydro-4H-isoxazolo[4,5-c]pyridine-3,5-dicarboxylic acid 3-cyclopentyl amide 5-(4-fluorobenzyl amide)], for which the “5-HT uptake (rat), 10 μM, % inhibition” value is on record as 41%.
`COc1ccc(C(C)NC(=O)c2noc3c2CN(S(=O)(=O)c2ccc(OC)cc2)CC3)cc1` (stereo not drawn) [Example 84, 5-(4-methoxy-benzenesulfonyl)-4,5,6,7-tetrahydro-isoxazolo[4,5-c]pyridine-3-carboxylic acid [1-(4-methoxyphenyl)-ethyl] amide] gave an inhibition at 10 µM of 69%.
On the same count and under the same terms, next, `COc1ccc(S(=O)(=O)N2CCc3onc(C(=O)NCc4cccc(OC)c4OC)c3C2)cc1` [Example 95, 5-(4-methoxy-benzenesulfonyl)-4,5,6,7-tetrahydro-isoxazolo[4,5-c]pyridine-3-carboxylic acid 2,3-dimethoxy-benzyl amide]: 68%.
Take `Cc1ccc(C(=O)N2CCc3onc(C(=O)NCCN(C)C)c3C2)c(F)c1F` [Example 74]: the “5-HT uptake (rat), 10 μM, % inhibition” value is given as 62%.
`O=C(NCCN1CCCC1)c1noc2c1CN(C(=O)COCc1ccccc1)CC2` [Example 64, 5-(2-benzyloxy-acetyl)-4,5,6,7-tetrahydro-isoxazolo[4,5-c]pyridine-3-carboxylic acid (2-pyrrolidin-1-yl-ethyl) amide]: testing at 10 µM gave an inhibition of 77%.
`Cc1ccc(S(=O)(=O)N2CCc3onc(C(=O)N4CCN(CCC5CCCCC5)CC4)c3C2)cc1` [Example 82, [4-(2-cyclohexyl-ethyl)-piperazin-1-yl]-[5-(toluene-4-sulfonyl)-4,5,6,7-tetrahydro-isoxazolo[4,5-c]pyridin-3-yl]-methanone] returned an inhibition at 10 µM of 62%.
On the same count and under the same terms, in the case of `CCOC(=O)CCNC(=O)c1noc2c1CN(C(=O)c1ccc(OC)cc1)CC2` [Example 98, 3-{[5-(4-methoxy-benzoyl)-4,5,6,7-tetrahydro-isoxazolo[4,5-c]pyridine-3-carbonyl]-amino}-propionic acid ethyl ester] it was 75%; in that of `O=C(c1noc2c1CN(S(=O)(=O)c1cc(Cl)ccc1Cl)CC2)N1CCC(CNC(=O)C(F)(F)F)CC1` [Example 83, N-{1-[5-(2,5-dichloro-benzenesulfonyl)-4,5,6,7-tetrahydro-isoxazolo[4,5-c]pyridine-3-carbonyl]-piperidin-4-ylmethyl}-2,2,2-trifluoroacetamide], 61%.
Take `COCCNC(=O)c1noc2c1CN(C(=O)Nc1cccc(OC)c1)CC2` [Example 1, 6,7-dihydro-4H-isoxazolo[4,5-c]pyridine-3,5-dicarboxylic acid 3-[(2-methoxy-ethyl) amide] 5-[(3-methoxyphenyl) amide]]: the “5-HT uptake (rat), 10 μM, % inhibition” value is given as 47%.
The molecule `Cc1cccc2c(CCNC(=O)c3noc4c3CN(S(=O)(=O)c3ccc(OC(F)(F)F)cc3)CC4)c[nH]c12` [Example 100, 5-(4-trifluoromethoxy-benzenesulfonyl)-4,5,6,7-tetrahydro-isoxazolo[4,5-c]pyridine-3-carboxylic acid [2-(7-methyl-1H-indol-3-yl)-ethyl] amide] displayed an inhibition at 10 µM of 83%.
As to `CCSCCNC(=O)c1noc2c1CN(C(=O)Nc1cccc(OC)c1)CC2` [Example 11, 6,7-dihydro-4H-isoxazolo[4,5-c]pyridine-3,5-dicarboxylic acid 3-[(2-ethylsulfanyl-ethyl) amide]5-[(3-methoxyphenyl) amide]], the “5-HT uptake (rat), 10 μM, % inhibition” value stood at 54%.
As for `Cc1ccc(C(=O)N2CCc3onc(C(=O)NCCN4CCCC4)c3C2)cc1F` [Example 115, 5-(3-fluoro-4-methyl-benzoyl)-4,5,6,7-tetrahydro-isoxazolo[4,5-c]pyridine-3-carboxylic acid (2-pyrrolidin-1-yl-ethyl) amide], the inhibition at 10 µM is 65%.
Still for that read-out and setting: in the case of `CCOC(=O)C(C)NC(=O)c1noc2c1CN(S(=O)(=O)c1cccs1)CC2` (stereo not drawn) [Example 85, 2-{[5-(thiophene-2-sulfonyl)-4,5,6,7-tetrahydro-isoxazolo[4,5-c]pyridine-3-carbonyl]-amino}-propionic acid ethyl ester] it was 67%.
The same measure, in the same setting: in the case of `O=C(NCCc1ccc(Cl)c(Cl)c1)c1noc2c1CN(S(=O)(=O)c1ccccc1)CC2` [Example 92, 5-benzenesulfonyl-4,5,6,7-tetrahydro-isoxazolo[4,5-c]pyridine-3-carboxylic acid [2-(3,4-dichloro-phenyl)-ethyl] amide] it was 61%; in that of `CSc1ccc(CN(Cc2ccco2)C(=O)c2noc3c2CN(S(=O)(=O)N(C)C)CC3)cc1` [Example 89, 5-dimethylsulfamoyl-4,5,6,7-tetrahydro-isoxazolo[4,5-c]pyridine-3-carboxylic acid furan-2-ylmethyl-(4-methylsulfanyl-benzyl) amide], 64%.
Still for that read-out and setting: in the case of `COc1ccc(S(=O)(=O)N2CCc3onc(C(=O)N4CCN(C(C)=O)CC4)c3C2)cc1` [Example 55, 1-{4-[5-(4-methoxy-benzenesulfonyl)-4,5,6,7-tetrahydro-isoxazolo[4,5-c]pyridine-3-carbonyl]-piperazin-1-yl}-ethanone] it was 68%.
Regarding `O=C(NCCc1ccccc1Cl)c1noc2c1CN(S(=O)(=O)c1cc(Cl)ccc1Cl)CC2` [Example 52, 5-(2,5-dichloro-benzenesulfonyl)-4,5,6,7-tetrahydro-isoxazolo[4,5-c]pyridine-3-carboxylic acid [2-(2-chlorophenyl)-ethyl] amide], the inhibition at 10 µM came out at 83%.
Still for that read-out and setting: next, `CN(C)CCNC(=O)c1noc2c1CN(C(=O)c1cccc(SC(F)F)c1)CC2` [Example 93, 5-(3-difluoromethylsulfanyl-benzoyl)-4,5,6,7-tetrahydro-isoxazolo[4,5-c]pyridine-3-carboxylic acid (2-dimethylamino-ethyl) amide]: 88%.
Consider `C#CCNC(=O)c1noc2c1CN(C(=O)Nc1cccc(F)c1)CC2` [Example 19, 6,7-dihydro-4H-isoxazolo[4,5-c]pyridine-3,5-dicarboxylic acid 5-[(3-fluorophenyl) amide] 3-prop-2-ynyl amide], for which the “5-HT uptake (rat), 10 μM, % inhibition” value came out at 50%.
`O=C(NCC1CC1)c1noc2c1CN(C(=S)NCc1ccc(Cl)cc1)CC2` [Example 129, 5-(4-chloro-benzylthiocarbamoyl)-4,5,6,7-tetrahydro-isoxazolo[4,5-c]pyridine-3-carboxylic acid cyclopropylmethyl amide]: the inhibition at 10 µM amounted to 75%.
Same read-out and setting: next, `COc1ccc(S(=O)(=O)N2CCc3onc(C(=O)Nc4ccc(C)cc4)c3C2)cc1` [Example 53, 5-(4-methoxy-benzenesulfonyl)-4,5,6,7-tetrahydro-isoxazolo[4,5-c]pyridine-3-carboxylic acid p-tolyl amide]: 89%; `Cc1ccc(CNC(=O)c2noc3c2CN(C(=O)C(C)(C)CC(=O)O)CC3)o1` [Example 31, 3,3-dimethyl-4-{3-[(5-methyl-furan-2-ylmethyl)-carbamoyl]-6,7-dihydro-4H-isoxazolo[4,5-c]pyridin-5-yl}-4-oxo-butanoic acid]: 57%.
In turn, `O=C(NCCN1CCCC1)c1noc2c1CN(C(=O)CC1CCCC1)CC2` [Example 71, 5-(2-cyclopentyl-acetyl)-4,5,6,7-tetrahydro-isoxazolo[4,5-c]pyridine-3-carboxylic acid (2-pyrrolidin-1-yl-ethyl) amide] came in with an inhibition at 10 µM of 69%.
Still for that read-out and setting: in the case of `CC(=O)Nc1ccc(C(=O)N2CCc3onc(C(=O)NCC4CC4)c3C2)cc1` [Example 45, 5-(4-acetylamino-benzoyl)-4,5,6,7-tetrahydro-isoxazolo[4,5-c]pyridine-3-carboxylic acid cyclopropylmethyl amide] it was 85%; in that of `COCCCNC(=O)c1noc2c1CN(S(=O)(=O)c1ccc(OC)cc1)CC2` [Example 62, 5-(4-methoxy-benzenesulfonyl)-4,5,6,7-tetrahydro-isoxazolo[4,5-c]pyridine-3-carboxylic acid (3-methoxy-propyl) amide], 67%.
`COCCNC(=O)c1noc2c1CN(C(=O)Nc1ccc(C)c([N+](=O)[O-])c1)CC2` [Example 5, 6,7-dihydro-4H-isoxazolo[4,5-c]pyridine-3,5-dicarboxylic acid 3-[(2-methoxy-ethyl) amide]5-[(4-methyl-3-nitro-phenyl) amide]]: the “5-HT uptake (rat), 10 μM, % inhibition” value is 47%.
